Test results from patent US9260439B2, “Dihydropyrrolopyrimidine derivatives” (PFIZER INC., priority 2014, dated 2016).

Target: truncated PI3Kα (p110α/iSH2 p85α) (Homo sapiens (Human), UniProt P42336)
Assay: PI3KA_Act fluorescence polarization kinase assay (Ki)
Assay type: biochemical
Conditions: 1 mM ATP
Method in brief: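 Ki values result from fitting fluorescence polarization signals to the Morrison equation for tight-binding competitive inhibitors. The detector was GST-Grp1 PH domain with TAMRA-PIP3, read after a 30 min room-temperature reaction of 0.5 nM truncated PI3Kα and 30 μM PIP2 at pH 7.4 in HEPES/NaCl/MgCl2/DTT/CHAPS buffer. Compounds were tested as 12-point 3-fold dilutions from 3 μM.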

Chain of truncated PI3Kα (p110α/iSH2 p85α) (P42336 whole entry, the tested form may be a part): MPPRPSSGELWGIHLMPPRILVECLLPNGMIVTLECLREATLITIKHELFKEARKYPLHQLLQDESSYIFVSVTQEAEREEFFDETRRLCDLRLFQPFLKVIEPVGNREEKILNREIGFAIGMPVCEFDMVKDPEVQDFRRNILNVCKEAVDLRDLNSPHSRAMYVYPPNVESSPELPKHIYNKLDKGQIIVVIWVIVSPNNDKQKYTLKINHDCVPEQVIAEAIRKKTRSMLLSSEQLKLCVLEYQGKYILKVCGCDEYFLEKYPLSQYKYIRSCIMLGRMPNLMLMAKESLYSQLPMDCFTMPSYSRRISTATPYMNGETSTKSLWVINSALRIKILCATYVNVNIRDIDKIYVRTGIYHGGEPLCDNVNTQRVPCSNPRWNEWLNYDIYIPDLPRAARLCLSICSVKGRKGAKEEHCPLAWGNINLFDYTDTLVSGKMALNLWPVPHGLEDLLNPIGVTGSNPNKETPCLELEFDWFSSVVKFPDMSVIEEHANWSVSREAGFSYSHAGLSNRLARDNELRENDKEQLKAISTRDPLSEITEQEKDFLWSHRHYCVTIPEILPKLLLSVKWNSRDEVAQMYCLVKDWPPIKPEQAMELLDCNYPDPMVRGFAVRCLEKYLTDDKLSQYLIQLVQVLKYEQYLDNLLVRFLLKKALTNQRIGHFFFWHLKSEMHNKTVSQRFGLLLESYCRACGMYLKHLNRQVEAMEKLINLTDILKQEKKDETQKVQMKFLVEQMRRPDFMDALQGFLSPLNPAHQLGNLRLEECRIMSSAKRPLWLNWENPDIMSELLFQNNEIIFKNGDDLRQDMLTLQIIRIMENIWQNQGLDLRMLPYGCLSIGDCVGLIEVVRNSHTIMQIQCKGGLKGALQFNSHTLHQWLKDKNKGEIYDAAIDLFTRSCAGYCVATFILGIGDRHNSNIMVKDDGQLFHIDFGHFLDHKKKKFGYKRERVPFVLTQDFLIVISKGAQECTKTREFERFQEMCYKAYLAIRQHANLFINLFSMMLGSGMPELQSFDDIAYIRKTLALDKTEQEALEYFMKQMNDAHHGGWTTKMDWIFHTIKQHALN

Row | SMILES | PI3KA_Act Ki [nM] | Ki [nM]
1 | COC1CN(C(=O)N2CC[C@](C)(N3CCc4c(-c5cnc(N)nc5)nc(N5CCOC[C@@H]5C)nc43)C2)C1 [Example 498, [(3S)-3-{4-(2-aminopyrimidin-5-yl)-2-[(3S)-3-methylmorpholin-4-yl]-5,6-dihydro-7H-pyrrolo[2,3-d]pyrimidin-7-yl}-3-methylpyrrolidin-1-yl](3-methoxyazetidin-1-yl)methanone] | 0.048 | 
2 | C[C@H]1COCCN1c1nc(-c2cnc(N)nc2)c2c(n1)N([C@@]1(C)CCN(C(=O)[C@@H]3CCOC3)C1)CC2 [Example 499, [(3S)-3-{4-(2-aminopyrimidin-5-yl)-2-[(3S)-3-methylmorpholin-4-yl]-5,6-dihydro-7H-pyrrolo[2,3-d]pyrimidin-7-yl}-3-methylpyrrolidin-1-yl][(3R)-tetrahydrofuran-3-yl]methanone] | 0.048 | 
3 | C[C@H]1COCCN1c1nc(-c2cnc(N)nc2)c2c(n1)N([C@@]1(C)CCN(C(=O)[C@H]3CCOC3)C1)CC2 [Example 500, [(3S)-3-{4-(2-aminopyrimidin-5-yl)-2-[(3S)-3-methylmorpholin-4-yl]-5,6-dihydro-7H-pyrrolo[2,3-d]pyrimidin-7-yl}-3-methylpyrrolidin-1-yl][(3S)-tetrahydrofuran-3-yl]methanone] | 0.064 | 
4 | C[C@H]1COCCN1c1nc(-c2cnc(N)nc2)c2c(n1)N([C@@]1(C)CCN(C(=O)[C@H]3CCCO3)C1)CC2 [Example 501, [(3S)-3-{4-(2-aminopyrimidin-5-yl)-2-[(3S)-3-methylmorpholin-4-yl]-5,6-dihydro-7H-pyrrolo[2,3-d]pyrimidin-7-yl}-3-methylpyrrolidin-1-yl][(2R)-tetrahydrofuran-2-yl]methanone] | 0.035 | 
5 | CNC(=N)N1CC[C@](C)(N2CCc3c(-c4cnc(N)nc4)nc(N4CCOC[C@@H]4C)nc32)C1 [Example 504, (3S)-3-{4-(2-aminopyrimidin-5-yl)-2-[(3S)-3-methylmorpholin-4-yl]-5,6-dihydro-7H-pyrrolo[2,3-d]pyrimidin-7-yl}-N,3-dimethylpyrrolidine-1-carboximidamide] | 0.109 | 
6 | CNC(=O)N1CC[C@@](C)(N2CCc3c(-c4cnc(N)nc4)nc(N4CCOC[C@@H]4C)nc32)C1 [Example 505, (3R)-3-{4-(2-aminopyrimidin-5-yl)-2-[(3S)-3-methylmorpholin-4-yl]-5,6-dihydro-7H-pyrrolo[2,3-d]pyrimidin-7-yl}-N,3-dimethylpyrrolidine-1-carboxamide] | 0.139 | 
7 | CNC(=O)N1CC[C@](C)(N2CCc3c(-c4cnc(N)nc4)nc(N4CCOC[C@@H]4C)nc32)C1 [Example 506, (3S)-3-{4-(2-aminopyrimidin-5-yl)-2-[(3S)-3-methylmorpholin-4-yl]-5,6-dihydro-7H-pyrrolo[2,3-d]pyrimidin-7-yl}-N,3-dimethylpyrrolidine-1-carboxamide] | 0.061 | 
8 | CCNC(=O)N1CC[C@](C)(N2CCc3c(-c4cnc(N)nc4)nc(N4CCOCC4)nc32)C1 [Example 507, (3S)-3-[4-(2-aminopyrimidin-5-yl)-2-(morpholin-4-yl)-5,6-dihydro-7H-pyrrolo[2,3-d]pyrimidin-7-yl]-N-ethyl-3-methylpyrrolidine-1-carboxamide] |  | 0.082
9 | COC(=O)N1CC[C@](C)(N2CCc3c(-c4cnc(N)nc4)nc(N4CCOC[C@@H]4C)nc32)C1 [Example 508, methyl (3S)-3-{4-(2-aminopyrimidin-5-yl)-2-[(3S)-3-methylmorpholin-4-yl]-5,6-dihydro-7H-pyrrolo[2,3-d]pyrimidin-7-yl}-3-methylpyrrolidine-1-carboxylate] | <0.018 | 
10 | COC(=O)N1CC[C@@](C)(N2CCc3c(-c4cnc(N)nc4)nc(N4CCOC[C@@H]4C)nc32)C1 [Example 509, methyl (3R)-3-{4-(2-aminopyrimidin-5-yl)-2-[(3S)-3-methylmorpholin-4-yl]-5,6-dihydro-7H-pyrrolo[2,3-d]pyrimidin-7-yl}-3-methylpyrrolidine-1-carboxylate] | 0.135 | 
11 | C[C@@H]1CN(C(=O)OC(C)(C)C)C[C@@]1(C)N1CCc2c(-c3cnc(N)nc3)nc(N3CCOC[C@@H]3C)nc21 [Example 510, tert-butyl (3S,4R)-3-{4-(2-aminopyrimidin-5-yl)-2-[(3S)-3-methylmorpholin-4-yl]-5,6-dihydro-7H-pyrrolo[2,3-d]pyrimidin-7-yl}-3,4-dimethylpyrrolidine-1-carboxylate] | <0.018 | 
12 | C[C@H]1COCCN1c1nc(-c2cnc(N)nc2)c2c(n1)N([C@@]1(C)CN(C(=O)OC(C)(C)C)C[C@@H]1C)CC2 [Example 511, tert-butyl (3R,4S)-3-{4-(2-aminopyrimidin-5-yl)-2-[(3S)-3-methylmorpholin-4-yl]-5,6-dihydro-7H-pyrrolo[2,3-d]pyrimidin-7-yl}-3,4-dimethylpyrrolidine-1-carboxylate] | 0.915 | 
13 | C[C@H]1COCCN1c1nc(-c2cnc(N)nc2)c2c(n1)N([C@@]1(C)CCN(C(=O)OC(C)(C)C)C1)CC2 [Example 512, tert-butyl (3S)-3-{4-(2-aminopyrimidin-5-yl)-2-[(3S)-3-methylmorpholin-4-yl]-5,6-dihydro-7H-pyrrolo[2,3-d]pyrimidin-7-yl}-3-methylpyrrolidine-1-carboxylate] | <0.018 | 
14 | C[C@H]1COCCN1c1nc(-c2cnc(N)nc2)c2c(n1)N([C@@]1(C)CCN(C)C1)CC2 [Example 513, 5-{7-[(3S)-1,3-dimethylpyrrolidin-3-yl]-2-[(3S)-3-methylmorpholin-4-yl]-6,7-dihydro-5H-pyrrolo[2,3-d]pyrimidin-4-yl}pyrimidin-2-amine] | 0.418 | 
15 | C[C@H]1COCCN1c1nc(-c2cnc(N)nc2)c2c(n1)N(C1(C)CCNCC1)CC2.Cl [Example 516, 5-{2-[(3S)-3-methylmorpholin-4-yl]-7-(4-methylpiperidin-4-yl)-6,7-dihydro-5H-pyrrolo[2,3-d]pyrimidin-4-yl}pyrimidin-2-amine hydrochloride] | 0.346 | 
16 | C[C@H]1COCCN1c1nc(-c2cnc(N)nc2)c2c(n1)N(C1(C)CCN(C(=O)OC(C)(C)C)CC1)CC2 [Example 519, tert-butyl 4-{4-(2-aminopyrimidin-5-yl)-2-[(3S)-3-methylmorpholin-4-yl]-5,6-dihydro-7H-pyrrolo[2,3-d]pyrimidin-7-yl}-4-methylpiperidine-1-carboxylate] | 0.036 | 
17 | C[C@H]1COCCN1c1nc(-c2cnc(N)nc2)c2c(n1)N(C1(C)CCCN(C(=O)OC(C)(C)C)C1)CC2 (stereo partly drawn) [Example 520, tert-butyl 3-{4-(2-aminopyrimidin-5-yl)-2-[(3S)-3-methylmorpholin-4-yl]-5,6-dihydro-7H-pyrrolo[2,3-d]pyrimidin-7-yl}-3-methylpiperidine-1-carboxylate] | 0.663 | 
18 | C[C@H]1COCCN1c1nc(-c2cnc(N)nc2)c2c(n1)N([C@H]1[C@@H]3CN(C(=O)OC(C)(C)C)C[C@@H]31)CC2 [Example 521, tert-butyl (1R,5S,6s)-6-{4-(2-aminopyrimidin-5-yl)-2-[(3S)-3-methylmorpholin-4-yl]-5,6-dihydro-7H-pyrrolo[2,3-d]pyrimidin-7-yl}-3-azabicyclo[3.1.0]hexane-3-carboxylate] | 0.170 | 
